Like-named read-outs stand apart in the source and are kept apart here.
Columns and labels:
[1] = pKa value determination by 1H NMR; assay type: physicochemical
Procedure: Sodium 2,2-dimethyl-2-silapentane-5-sulfonate (DSS) was used for chemical shift referencing and calibrated to a zero ppm value in each case. […] Then the pKa was calculated by using the chemical shifts of the protonated and unprotonated forms at the respective pH and fitting to the Henderson-Hasselbalch equation[25] (Fig. 6B).
1D ^1H-NMR experiments were performed using 256 scans for each sample. ^1H chemical shift values were extracted for the reporter protons using TopSpin 3.2 (Bruker BioSpin). The pKa was calculated using the chemical shifts of the protonated and unprotonated forms and their corresponding mole fraction values applying the Henderson-Hasselbalch equation as explained by Gift et al.[25]. The data were processed and plotted with the Origin software (OriginLab Corporation, USA).

[2] = Kinetic solubility in PBS; assay type: physicochemical; conditions: kinetic from dmso stock
Procedure: in a cut-off concentration of 200 µM and a final solvent content of 1% DMSO. The test
solutions (triplicates) were put on a filter plate and were shaken protected from light at 300 rpm
at room temperature for 1.5 hours, followed by centrifugation at 500 x g for 3 minutes. 200 µl
of the filtrate were mixed with 100 µl ACN containing the ISTD as described in Sample

[3] = Hepatocyte stability; assay type: in vitro ADME; conditions: mouse hepatocytes
Procedure: Working solutions of the test and reference items were diluted from the stock solutions in the
incubation medium to reach 10-fold concentrated starting solutions. The final test
concentrations were 5 µM with a solvent content of 0.5% DMSO or 1% ACN in all test item
and reference item incubations, respectively. 7.44 compound was dissolved 20 mM in DMSO
Primary hepatocytes from CD-1 mice (pooled, male) were thawed
according to the instructions of the manufacturer. The incubation samples were composed of
0.2 x 10^6 cells/well in 225 µL incubation medium and 25 µL test item solution (50 µM in
incubation medium), resulting in a final start concentration of 5 µM. Samples were taken from
the suspension cultures after 0, 15, 30, 60, and 120 minutes of incubation and processed for LC-
MS analysis as described in Sample preparation section.
Positive control incubations were performed using 7-ethoxycoumarin as substrate. Metabolic
turnover rates were measured at 0 and 120 minutes of incubation. Aliquotes were taken from
the incubations for sample preparation and analysis. Hepatocyte enzyme activity was assessed
in terms of 7-ethoxycoumarin turnover, i.e., loss of 7-ethoxycoumarin.
Negative controls were performed to observe non-metabolic degradation processes; i.e. test
Negative control incubations were performed
in line with all experiments using incubation medium with test and reference item in the absence
of hepatocytes. Samples were taken from the incubations at 0 and 120 minutes and processed
as described below (in Sample preparation section).

[4] = Chemical stability in PBS; assay type: physicochemical; conditions: pH 7.4, 0–4 h
Procedure: (§1) For plasma stability assay, working solutions of the test and reference item were diluted f r o m the stock solutions in the appropriate solvent (Table S3) to reach working solutions of 50-fold […]
(§2) and propantheline (reference item for low plasma stability) were tested at a final concentration of 10 µM. The final solvent content in the test item incubations was 0.5% DMSO, while in the propantheline incubations, no organic solvent was added.
(§3) For chemical stability assay, working solutions of the test and reference items were diluted from the stock solutions in the appropriate solvent (Table S3) to reach working solutions of 50- […]
(§4) item and Omeprazole (reference item for low chemical stability) were tested at a final concentration of 10 µM. The final solvent content in the test item incubations was 0.5% DMSO.
(§5) For the hepatic stability assay, working solutions of the test and reference items were diluted from the stock solutions in the appropriate solvent (Table S3) to reach working solutions of a 200-fold higher strength than the intended final concentrations. In a second step, working solutions were further diluted in incubation medium to reach 10-fold concentrated starting

[5] = Plasma stability; assay type: in vitro ADME; conditions: mouse plasma, 0–240 min, 37 °C
Procedure: as §1, §2, §3, §4, §5

[6] = Peff in cm sec-1 from PAMPA assays; ref Bennion, Be [13]; cited from earlier work
[7] = target: T1, NHR2 (Homo sapiens, UniProt Q06455); test: Isothermal titration calorimetry (ITC) of HEB fragment with NHR2; conditions: 25°C, one-site binding model
T1 construct: The N-terminal residues from Q485 to D495, T519, and the C-terminal residues from Y544 to K552; 6His (N, cleaved yes); SUMO (N, cleaved yes); made in house; host or cells: E. coli Rosetta (DE3)pLysS
T1 sequence (Q06455 337-404): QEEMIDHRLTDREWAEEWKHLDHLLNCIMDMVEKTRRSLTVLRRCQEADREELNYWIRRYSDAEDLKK
Procedure: The NHR2 domain was overexpressed and purified, and the resulting material yielded homogeneous, monodisperse species in solution. The sample was homogenous as analyzed by size exclusion chromatography (SEC) (Fig. 2A), SDS-PAGE (Fig. S1), and dynamic light scattering (DLS) (Fig. S3). The oligomeric state of purified NHR2 was assessed by analytical ultracentrifugation (AUC) (Fig. S4). The sedimentation profiles of NHR2 show a single major species with a sedimentation coefficient (S value) of 3.07, which corresponds to the molecular weight of 37.3 kDa. This value is in agreement with the calculated molecular weight of an NHR2 tetramer of 34.2 kDa. […] The weight percent contribution of the tetramer in 35 µM of NHR2 is 94% as obtained by integration of the continuous sedimentation coefficient distribution function. To check the function of the purified NHR2, we performed isothermal titration calorimetry (ITC) with the HEB fragment of E proteins (HEB (176–200)).
Figure S5. NHR2 interaction with E proteins (HEB (176-200)) by isothermal titration calorimetry (ITC). Titration of
600 μM HEB (176-200) peptide into a 53 μM NHR2 solution and resulting heat change are shown in the upper panel. The
ITC measurements were performed at 25°C using a MicroCal ITC200 (Malvern Instruments Ltd., United Kingdom)
calorimeter. Buffer conditions were 50 mM sodium phosphate, 50 mM sodium chloride pH 8. […]

[8] = target: T2, HEB 176-200 (Homo sapiens, UniProt Q99081); test: ITC
T2 chain: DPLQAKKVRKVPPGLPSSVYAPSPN

[9] = target: the molecule itself; test: MST

## O=C(CC(C(=O)O)c1ccc2c(c1)OCO2)c1ccc2c(c1)OCO2 (stereo not drawn) [7.44]
[1]; sodium phosphate buffer with NaCl and DMSO-d6, reporter proton H2, read-out: pKa of the carboxylic group
  pKa: 3.99 ± 0.01
[1]; sodium phosphate buffer with NaCl and DMSO-d6, reporter proton H3, read-out: pKa of the carboxylic group
  pKa: 3.93 ± 0.01
[1]; sodium phosphate buffer with NaCl and DMSO-d6, summary value, read-out: pKa
  pKa: ~3.9
[2]; 99% PBS, 1% DMSO, pH 7.4, aqueous buffer
  solubility kinetic at […]: 177 ± 8 µM
[2]; PBS with 1% DMSO, aqueous buffer, PBS, pH 7.4, read-out: Kinetic solubility
  solubility kinetic at […]: 60 µg/mL
[3]; male, CD-1, primary hepatocytes (pooled, suspension), read-out: Hepatocyte stability, intrinsic clearance rate (CLint)
  hepatocyte CLint at 5 µM: 2.5 µL/min/1e6 cells
[3]; male, CD-1, primary hepatocytes (pooled, suspension), read-out: half-life time
  half-life at 5 µM: > 2 h
[3]; after 120 min
  compound remaining: 73.8%
[4]
  Chemical stability in PBS: No degradation
[5]
  Plasma stability: No degradation

## NC(=O)c1cc[n+](COC[n+]2ccccc2/C=N/O)cc1 [asoxime (HI-6), asoxime]
[6]
  log Peff/PAMPA P0-1: -11.16

## CN(C)CCCN1c2ccccc2Sc2ccc(Cl)cc21 [chlorpromazine]
[6]
  log Peff/PAMPA P0-1: -5.26

## O/N=C/c1cc[n+](C[n+]2ccc(/C=N/O)cc2)cc1 [methoxime (MMB4), methoxime]
[6]
  log Peff/PAMPA P0-1: -9.25

## C[n+]1ccccc1/C=N/O [pralidoxime (P2-PAM), pralidoxime]
[6]
  log Peff/PAMPA P0-1: -7.52

## CC(=O)[C@H]1CC[C@H]2[C@@H]3CCC4=CC(=O)CC[C@]4(C)[C@H]3CC[C@]12C [progesterone]
[6]
  log Peff/PAMPA P0-1: -4.94

## CN(C)CCCN1c2ccccc2Sc2ccccc21 [promazine]
[6]
  log Peff/PAMPA P0-1: -4.88

## Cn1c(=O)c2[nH]cnc2n(C)c1=O [theophylline]
[6]
  log Peff/PAMPA P0-1: -5.91

## HEB (176–200): HEB fragment of E proteins, known to interact with the NHR2 domain (DPLQAKKVRKVPPGLPSSVYAPSPN; UniProt Q99081 176-200, looked up, fragment)
[7]
  binding enthalpy ΔH: -15 ± 6 kcal/mol
[7]; read-out: dissociation constant KD
  Kd: 30 ± 4 µM

B1: NHR2 domain of RUNX1/ETO 485-552 (protein)
chain: KMERTVAEAKRQAAEDALAVINQQEDSSESCWNCGRKASETCSGCNTARYCGSFCQHKDWEKHHHICG
[8]
  Kd: 30 µM

B2: NHR2 domain of RUNX1/ETO (dimer) 485-552 (protein)
chain: KMERTVAEAKRQAAEDALAVINQQEDSSESCWNCGRKASETCSGCNTARYCGSFCQHKDWEKHHHICG
[9]
  Kd: 1.6 µM

— article PMC9391460, “Biophysical and pharmacokinetic characterization of a small-molecule inhibitor of RUNX1/ETO tetramerization with anti-leukemic effects” (Scientific Reports, 2022)
